In general, IC50 refers to the concentration that gives 50% inhibition.

The text below walks through data of patent EP4745134A1 (Jiangsu Yahong Meditech Co., Ltd., priority 2023, dated 2025).

The test system of assay [1] is HCT116 MTAP KO cells. In words: Inhibitory activity against cell proliferation (CellTiter Glo, 6 days), HCT116 MTAP KO. The format is cell-based. The following applies: for IC50: Homo sapiens, HCT-116, 144 h, HCT116 MTAP KO cells, 6 days, CellTiter Glo, read-out: HCT116 MTAP KO IC50; for Selectivity HCT 116-WT/ HCT116 MTAP KO: ratio of IC50 HCT116-WT / HCT116 MTAP KO. The procedure, abridged:
(§1)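 Viability is measured by CellTiter Glo luminescence on day 7, following a 6-day treatment with compounds serially diluted 4-fold over 8 points from 10000 nM. Both lines are plated at 250 cells per well and cultured overnight beforehand.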

The test system of assay [2] is MTAP-deficient HCT116. The assay can be described thus: Pharmacodynamic test in human colon cancer xenograft model (MTAP-deficient HCT116). The format is in vivo. The following applies: 100 mpk, orally by gavage once a day, HCT116 MTAP deficient mice xenograft. How it is done: The compounds (100 mpk, blank vehicle as a control) were orally administered to the HCT116 MTAP deficient mice (cell source: creative biogene-CSC-RT2701) of human colon cancer xenograft model by gavage daily during the experimental planning period. The positive compound AMG9747 was synthesized according to the method reported in the patent WO2021163344A1. The compounds were formulated as follows: weighing 100.00 mg of a test compound, adding it to 10 mL of 0.5% MC4000+0.2% Tween 80, vortexing and shaking to prepare a suspension, i.e., a dose of 100 mpk. Each group had 8 mice and was subjected to administration by gavage once a day. The tumor volume was measured once in groups before administration, and measured on days 3, 6, 10, 13, 16 and 19 respectively after administration. The positive drug (synthesized according to the patent WO2021163344A1) AMG-9747 was used as a control, and compound AMG-9747 has a structure of: [drawing 1174] Table 3. Percentage of inhibition of the compounds of the present invention on tumor growth in the human colon cancer xenograft (MTAP-deficient HCT116) model
For orientation: In xenograft studies the graft and the host belong to different species.

In assay [3] the test system is HCT116-WT cells. In words: Inhibitory activity against cell proliferation (CellTiter Glo, 6 days), HCT116-WT. The format is cell-based. The note with it: 144 h, HCT116-WT cells, 6 days, CellTiter Glo; read-out: HCT116-WT IC50. The gist of the method:
as §1
(In general: In ATP-based viability assays light output follows the ATP content of the culture.)

Assay [4] concerns the target PRMT5-MTA (Homo sapiens, UniProt O14744). The assay can be described thus: Enzymatic inhibitory activity against PRMT5-MTA (AlphaScreen). The following applies: read-out: IC50. The format is biochemical. The procedure, abridged: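 PRMT5/[…] (1 nM) was preincubated for 30 min at room temperature with 1 µM […] and 2.5 µM SAM, then exposed to compound (10-point, 3-fold from 1000 nM) for 15 min at 23 °C. Histone H4 substrate (5 nM) was added and reacted for 45 min at 23 °C. Symmetric dimethyl-R3 H4 was detected by AlphaScreen and IC50 calculated.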
On the technique in general: Alpha assays give light when donor and acceptor beads are brought close together.

Chain of PRMT5-MTA (O14744 whole entry): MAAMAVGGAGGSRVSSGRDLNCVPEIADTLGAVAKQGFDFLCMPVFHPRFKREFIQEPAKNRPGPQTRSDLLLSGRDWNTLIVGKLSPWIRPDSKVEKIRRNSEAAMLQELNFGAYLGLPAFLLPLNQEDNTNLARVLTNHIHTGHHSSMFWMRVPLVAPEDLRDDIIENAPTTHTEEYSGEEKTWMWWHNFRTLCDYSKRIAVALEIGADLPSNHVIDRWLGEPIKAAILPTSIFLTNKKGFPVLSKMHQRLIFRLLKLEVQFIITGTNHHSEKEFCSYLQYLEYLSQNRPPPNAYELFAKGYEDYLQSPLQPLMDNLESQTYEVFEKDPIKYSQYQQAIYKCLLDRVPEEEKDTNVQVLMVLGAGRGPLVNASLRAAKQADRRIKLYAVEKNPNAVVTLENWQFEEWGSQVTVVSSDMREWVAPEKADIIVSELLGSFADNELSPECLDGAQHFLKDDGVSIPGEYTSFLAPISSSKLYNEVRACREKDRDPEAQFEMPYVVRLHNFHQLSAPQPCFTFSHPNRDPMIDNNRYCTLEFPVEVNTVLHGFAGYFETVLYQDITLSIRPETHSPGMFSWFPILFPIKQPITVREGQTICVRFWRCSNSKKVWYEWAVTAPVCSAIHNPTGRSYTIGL
Chain of PRMT5-MTA (Q9BQA1 whole entry partner): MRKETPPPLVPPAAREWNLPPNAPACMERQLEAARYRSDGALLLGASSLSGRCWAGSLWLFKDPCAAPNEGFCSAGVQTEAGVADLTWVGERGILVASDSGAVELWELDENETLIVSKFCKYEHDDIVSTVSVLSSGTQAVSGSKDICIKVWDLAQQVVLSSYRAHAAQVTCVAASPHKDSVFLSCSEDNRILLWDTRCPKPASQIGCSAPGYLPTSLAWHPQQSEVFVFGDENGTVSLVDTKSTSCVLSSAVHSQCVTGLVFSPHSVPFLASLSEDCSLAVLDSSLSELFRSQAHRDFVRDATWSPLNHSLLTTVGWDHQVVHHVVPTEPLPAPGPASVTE

With `Cc1cc2cc(C(=O)N(Cc3ccc(-c4cnn(C(F)(F)F)c4)cn3)N(C)c3ncccn3)ccc2nc1N` [Example 189, 2-amino-N',3-dimethyl-N'-(pyrimidin-2-yl)-N-((5-(1-(trifluoromethyl)-1H-pyrazol-4-yl)pyridin-2-yl)methyl)quinoline-6-carbohydrazide], the IC50 worked out at 55 nM in assay [1], 2310 nM in assay [3] and 1.7 nM in assay [4]. Moreover, the “Selectivity HCT 116-WT/ HCT116 MTAP KO” value in assay [1] is on record as 42.00. For the same compound, in assay [2], the “Percentage of tumor growth inhibition” value worked out at 93%.
As for `Cc1cc2cc(C(=O)N(Cc3ccc(C(F)(F)F)cn3)[C@H](C)c3ncccn3)ccc2nc1N` [AMG-9747, reference compound], in assay [2], the “Percentage of tumor growth inhibition” value came out at 68%.
As for `Cc1cc2cc(C(=O)N(Cc3ccc(-c4scnc4C)cn3)N(c3ncccn3)C3CC3)ccc2nc1N` [Example 184, 2-amino-N'-cyclopropyl-3-methyl-N-((5-(4-methylthiazol-5-yl)pyridin-2-yl)methyl)-N'-(pyrimidin-2-yl)quinoline-6-carbohydrazide], the values for the IC50 in assay [1], in assay [3] and in assay [4] were 13 nM, 240 nM and 7.4 nM, respectively. Besides, the “Selectivity HCT 116-WT/ HCT116 MTAP KO” value in assay [1] is 18.46. The “Percentage of tumor growth inhibition” value in assay [2] came to 81%.
Turning to `Cc1cc2cc(C(=O)N(Cc3ccc(C(F)(F)F)cn3)N(C)c3ncccn3)ccc2nc1N` [Example 1, 2-amino-N',3-dimethyl-N'-(pyrimidin-2-yl)-N-((5-(trifluoromethyl)pyridin-2-yl)methyl) quinoline-6-carbohydrazide], the half-inhibitory concentration (IC50) in assay [1] came out at 32 nM; in assay [3], 623 nM; in assay [4], 1 nM. In assay [1], the “Selectivity HCT 116-WT/ HCT116 MTAP KO” value worked out at 19.47. Moreover, the “Percentage of tumor growth inhibition” value in assay [2] is 80%.
Taken in the same sequence, the figures for `Cc1cc2nc(N)c3cnn(C)c3c2cc1C(=O)N1CC(C)CN1c1ncc(Br)cc1F` (centres unmarked) [Example 392, (4-amino-1,7-dimethyl-1H-pyrazolo[4,3-c]quinolin-8-yl)(2-(5-bromo-3-fluoropyridin-2-yl)-4-methylpyrazolidin-1-yl)metha none] were 28 nM, 1130 nM, 4 nM, 40.21 and 69%.
Taken in the same sequence, the figures for `Cc1cc2cc(C(=O)N(Cc3ccc(C(F)(F)F)cn3)N(c3ncccn3)C3CC3)ccc2nc1N` [Example 3, 2-amino-N'-cyclopropyl-3-methyl-N'-(pyrimidin-2-yl)-N-((5-(trifluoromethyl)pyridin-2-yl)methyl)quinoline-6-carbohydrazide] were 27 nM, 568 nM, 2.6 nM, 21.04 and 86%.
In the case of `Cc1cc2nc(N)c3cnn(C)c3c2cc1C(=O)N1CC2(CC2)CN1c1ncccc1F` [Example 366, (4-amino-1,7-dimethyl-1H-pyrazolo[4,3-c]quinolin-8-yl)(6-(3-fluoropyridin-2-yl)-5,6-diazaspiro[2.4]heptan-5-yl)methanone], the values for the IC50 in assay [1], in assay [3] and in assay [4] were 7.7 nM, 319 nM and 7.9 nM, respectively. Moreover, the “Selectivity HCT 116-WT/ HCT116 MTAP KO” value in assay [1] stood at 41.43.
In the case of `Cc1cc2cc(C(=O)N(Cc3cc4cccc(F)c4cn3)N(C)c3ncccn3)ccc2nc1N` [Example 123, 2-amino-N-((8-fluoroisoquinolin-3-yl)methyl)-N',3-dimethyl-N'-(pyrimidin-2-yl)quinoline-6-carbohydrazide], the IC50 came out at 88 nM in assay [1], 1900 nM in assay [3] and 2.9 nM in assay [4]. In addition, the “Selectivity HCT 116-WT/ HCT116 MTAP KO” value in assay [1] was found to be 21.61.
Taken in the same sequence, the figures for `Cc1cc2cc(C(=O)N(Cc3ccc(C(F)(F)F)cc3F)N(C)c3ncccn3)ccc2nc1N` [Example 90, 2-amino-N-(2-fluoro-4-(trifluoromethyl)benzyl)-N',3-dimethyl-N'-(pyrimidin-2-yl) quinoline-6-carbohydrazide] were 98 nM, 2170 nM, 4.5 nM and 22.13.
